From US20110105420A1, “AMINOSUGAR COMPOUND AND PROCESS FOR PRODUCTION THEREOF” (Astellas Pharma Inc., priority 2008, published 2011)

Columns and labels:
[1] = Solubility (physicochemical properties)
[2] = target: T1, human saliva α-amylase (Homo sapiens, UniProt P0DUB6); test: α-amylase inhibitory activity (starch-iodine absorbance); assay type: biochemical; conditions: enzyme from Sigma-Aldrich, starch substrate, 37° C., pH=7.0; read-out: inhibitory activity (IC50 value) against the human saliva α-amylase
T1 construct: The solutions of α-amylases from human saliva and pancreas were prepared from the enzymes purchased from Sigma-Aldrich Co; purchased Sigma-Aldrich Co; host or cells: human saliva
T1 sequence (P0DUB6 16-511): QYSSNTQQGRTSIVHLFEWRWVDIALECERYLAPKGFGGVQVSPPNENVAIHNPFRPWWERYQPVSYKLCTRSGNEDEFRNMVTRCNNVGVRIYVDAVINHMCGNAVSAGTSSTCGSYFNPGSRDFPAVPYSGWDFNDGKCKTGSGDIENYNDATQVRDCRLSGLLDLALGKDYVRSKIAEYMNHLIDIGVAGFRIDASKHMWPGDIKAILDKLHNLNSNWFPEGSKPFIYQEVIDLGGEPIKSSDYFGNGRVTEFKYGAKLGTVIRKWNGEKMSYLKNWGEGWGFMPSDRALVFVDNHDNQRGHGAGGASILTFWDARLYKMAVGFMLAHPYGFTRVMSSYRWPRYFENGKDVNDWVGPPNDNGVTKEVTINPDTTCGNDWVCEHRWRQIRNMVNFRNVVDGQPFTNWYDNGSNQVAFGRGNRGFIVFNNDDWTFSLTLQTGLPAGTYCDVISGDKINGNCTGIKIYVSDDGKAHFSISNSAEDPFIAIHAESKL
Protocol: (§1) The solutions of pancreatic α-amylases of mouse, rat, dog and monkey were prepared from the pancreases of an ICR mouse (male, 8 weeks old, purchased from SLC Japan, Inc.), an SD rat (male, 8 weeks old, purchased from Charles River Laboratories Japan, Inc.), a beagle dog (male, 35 months old, purchased from Narc Corp.), and a cynomolgus monkey (male, 10 years old, purchased from CLEA Japan, Inc.). The solutions of α-amylases from human saliva and pancreas were prepared from the enzymes purchased from Sigma-Aldrich Co. These α-amylase solutions were all diluted to 800 U/mL using an assay buffer (48 mM NaCl, 5.4 mM KCl, 28 mM Na2HPO4, 43 mM NaH2PO4, 35 mM mannitol, pH=7.0). The various α-amylase solutions (20 U, 25 μL) and the compounds dissolved in the assay buffer (25 μL) were added to a 96-well microplate, and the microplate was incubated at 37° C. for 10 minutes. Subsequently, a starch solution (5 mg/mL, 50 μL) was added thereto, and the microplate was incubated at 37° C. for 10 minutes. A 0.33 M perchloric acid solution (50 μL) was added to the microplate to terminate the enzymatic reaction, and then a 0.01 M iodine solution (50 μL) was added thereto to color the solutions. The absorbance (660 nm) of each of the solutions was measured. The concentration of the compound inhibiting 50% of the α-amylase activity was calculated as the IC50 value.

[3] = target: T2, human pancreatic α-amylase (Homo sapiens, UniProt P04746); test: as above; assay type: biochemical; conditions: enzyme from Sigma-Aldrich, starch substrate, 37° C., pH=7.0; read-out: inhibitory activity (IC50 value) against the human pancreatic α-amylase
T2 construct: The solutions of α-amylases from human saliva and pancreas were prepared from the enzymes purchased from Sigma-Aldrich Co; purchased Sigma-Aldrich Co; host or cells: human pancreas
T2 sequence (P04746 16-511): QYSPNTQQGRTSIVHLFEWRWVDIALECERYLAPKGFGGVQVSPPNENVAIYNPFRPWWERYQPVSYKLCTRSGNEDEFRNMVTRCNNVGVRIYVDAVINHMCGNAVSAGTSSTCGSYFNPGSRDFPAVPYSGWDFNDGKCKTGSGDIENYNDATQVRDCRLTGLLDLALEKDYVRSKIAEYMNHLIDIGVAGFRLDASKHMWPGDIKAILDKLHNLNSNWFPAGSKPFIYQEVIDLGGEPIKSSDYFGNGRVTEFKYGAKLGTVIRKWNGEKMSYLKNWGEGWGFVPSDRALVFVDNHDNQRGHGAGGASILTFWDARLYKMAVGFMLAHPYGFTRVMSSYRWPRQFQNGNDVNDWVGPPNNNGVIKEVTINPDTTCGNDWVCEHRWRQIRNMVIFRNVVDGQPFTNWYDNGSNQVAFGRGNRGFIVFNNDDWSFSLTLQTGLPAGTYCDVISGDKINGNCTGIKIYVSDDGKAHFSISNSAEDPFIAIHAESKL
Protocol: as §1

[4] = target: T3, rat pancreatic α-amylase (Rattus norvegicus, UniProt P00689); test: as above; assay type: biochemical; conditions: read-out: inhibitory activity (IC50 value) against the rat pancreatic α-amylase; SD rat pancreas enzyme, starch substrate, 37° C., pH=7.0
T3 construct: The solutions of pancreatic α-amylases of mouse, rat, dog and monkey were prepared from the pancreases; from tissue; host or cells: pancreas of SD rat (male, 8 weeks old, Charles River Laboratories Japan)
T3 sequence (P00689 16-508): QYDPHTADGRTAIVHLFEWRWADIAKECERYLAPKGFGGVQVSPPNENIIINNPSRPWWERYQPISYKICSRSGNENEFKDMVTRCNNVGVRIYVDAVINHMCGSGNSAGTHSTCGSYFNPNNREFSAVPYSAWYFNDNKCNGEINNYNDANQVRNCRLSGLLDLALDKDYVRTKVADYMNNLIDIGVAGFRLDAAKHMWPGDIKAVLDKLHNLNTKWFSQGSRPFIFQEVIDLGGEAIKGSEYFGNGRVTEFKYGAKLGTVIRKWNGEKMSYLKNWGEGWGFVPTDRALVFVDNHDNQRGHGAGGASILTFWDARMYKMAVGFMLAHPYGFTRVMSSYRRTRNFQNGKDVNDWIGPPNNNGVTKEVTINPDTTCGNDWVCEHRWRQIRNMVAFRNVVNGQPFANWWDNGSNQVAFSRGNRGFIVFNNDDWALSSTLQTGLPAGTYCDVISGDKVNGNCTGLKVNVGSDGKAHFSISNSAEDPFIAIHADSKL
Protocol: as §1

[5] = target: dog pancreatic α-amylase; test: as above; assay type: biochemical; conditions: beagle dog pancreas enzyme, starch substrate, 37° C., pH=7.0; read-out: inhibitory activity (IC50 value) against the dog pancreatic α-amylase
Protocol: as §1

[6] = target: monkey pancreatic α-amylase; test: as above; assay type: biochemical; conditions: cynomolgus monkey pancreas enzyme, starch substrate, 37° C., pH=7.0; read-out: inhibitory activity (IC50 value) against the monkey pancreatic α-amylase
Protocol: as §1

[7] = target: T4, mouse pancreatic α-amylase (Mus musculus, UniProt P00688); test: as above; assay type: biochemical; conditions: read-out: inhibitory activity (IC50 value) against the mouse pancreatic α-amylase; ICR mouse pancreas enzyme, starch substrate, 37° C., pH=7.0
T4 construct: prepared from the pancreases of an ICR mouse; from tissue; host or cells: pancreas of ICR mouse (male, 8 weeks old, SLC Japan)
T4 sequence (P00688 16-508): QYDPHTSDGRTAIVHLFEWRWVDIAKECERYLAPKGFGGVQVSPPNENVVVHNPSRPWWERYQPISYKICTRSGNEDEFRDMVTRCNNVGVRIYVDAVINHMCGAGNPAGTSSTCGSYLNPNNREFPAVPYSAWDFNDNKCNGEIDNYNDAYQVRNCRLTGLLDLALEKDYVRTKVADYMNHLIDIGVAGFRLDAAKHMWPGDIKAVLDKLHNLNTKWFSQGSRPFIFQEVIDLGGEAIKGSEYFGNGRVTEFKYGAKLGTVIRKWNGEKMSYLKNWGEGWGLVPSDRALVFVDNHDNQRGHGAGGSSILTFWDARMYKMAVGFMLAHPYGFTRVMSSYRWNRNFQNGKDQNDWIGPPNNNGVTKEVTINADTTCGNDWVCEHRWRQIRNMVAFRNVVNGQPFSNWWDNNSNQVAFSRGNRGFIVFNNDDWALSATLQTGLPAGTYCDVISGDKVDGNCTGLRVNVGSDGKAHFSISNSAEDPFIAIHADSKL
Protocol: as §1

[8] = test system: Male ICR (normal) mice; test: oral activity under a load of carbohydrates (blood glucose and plasma insulin); assay type: in vivo, mouse
Protocol: Male ICR (normal) mice (6 weeks old, purchased from SLC Japan, Inc.) were used for the animal. The compound was prepared into a solution using a 0.5% methylcellulose solution. Blood was collected from a mouse which had been fasted overnight, for the measurement of the blood glucose level and the blood plasma insulin level, and the mouse was orally administered with a solvent or the compound A (0.3, 1, 3, 10 mg/kg), immediately followed by oral administration of a carbohydrate solution (75 mg/mL starch, 25 mg/mL sucrose, 20 mL/kg). Subsequently, blood was collected 0.25, 0.5 and 1 hour after the oral administration, for the measurement of the blood plasma insulin level, and blood was collected 0.5, 1 and 2 hours after the oral administration, for the measurement of the blood glucose level.
The blood glucose level was measured by using Glucose CH-test Wako reagent (Wako Pure Chemical Industry, Ltd.), and the blood plasma insulin concentration was measured by using a Mouse Insulin ELISA Kit (Shibayagi Co., Ltd.). The test results are indicated in the average ±standard error.
The area-under-curve (AUC) of the blood glucose level-time curve was calculated from the blood glucose level for the time period up to 2 hours from the administration of the compound, and the AUC of the plasma insulin level-time curve was calculated from the blood plasma insulin level for the time period up to 1 hour from the administration of the compound. A statistical analysis was performed between the solvent-administered group and the compound A-administered group by using Dunnett's multiple range test, and a critical rate of less than 5% was defined as significant.

Solubility in acetone, MeOH, EtOH and MeCN [1] | Solubility in water, DMF and DMSO [1] | IC50 [2] [nM] | IC50 [3] [nM] | IC50 [4] [nM] | IC50 [5] [nM] | IC50 [6] [nM] | IC50 [7] [nM] | Structure (SMILES) | blood glucose elevation suppressive action ([8]; oral administration 0.3 to 10 mg/kg, fasted ICR mice, carbohydrate load (starch + sucrose), glucose up to 2 hours, FIG. 7) | plasma insulin level lowering action ([8]; oral administration 0.3 to 10 mg/kg, fasted ICR mice, carbohydrate load, insulin up to 1 hour, FIG. 8) | dose at which the blood glucose elevation suppressive action was significant ([8]; oral, ICR mice, carbohydrate load, Dunnett's test vs solvent group) [mg/kg]
slightly soluble | highly soluble | 2.2 | 2.02 | 2.01 | 2.06 | 2.14 | 1.9 | CC1OC(OC2C(CO)OC(OC3C(CO)=CC(NC4C(C)OC(OC5C(CO)OC(OC6C(CO)=CC(NC7C(C)OC(OC8C(CO)OC(OC9C(CO)=CC(NC%10C(C)OC(OC%11C(CO)OC(OC%12C(CO)OC(OC%13C(CO)OC(OC%14OC(CO)C(O)C(O)C%14O)C(O)C%13O)C(O)C%12O)C(O)C%11O)C(O)C%10O)C(O)C9O)C(O)C8O)C(O)C7O)C(O)C6O)C(O)C5O)C(O)C4O)C(O)C3O)C(O)C2O)C(O)C(O)C1NC1C=C(CO)C(O)C(O)C1O (stereo not drawn) [compound A] | dose-dependent blood glucose elevation suppressive action was recognized | dose-dependent, significant plasma insulin level lowering action was also recognized | ≥ 1
slightly soluble | highly soluble | 1.87 | 2.11 | 2.12 | 2.38 | 1.9 | 2.06 | CC1OC(OC2C(CO)OC(OC3C(CO)=CC(NC4C(C)OC(OC5C(CO)OC(OC6C(CO)=CC(NC7C(C)OC(OC8C(CO)OC(OC9C(CO)=CC(NC%10C(C)OC(OC%11C(CO)OC(OC%12C(CO)=CC(NC%13C(C)OC(OC%14C(CO)OC(OC%15C(CO)OC(OC%16C(CO)OC(OC%17OC(CO)C(O)C(O)C%17O)C(O)C%16O)C(O)C%15O)C(O)C%14O)C(O)C%13O)C(O)C%12O)C(O)C%11O)C(O)C%10O)C(O)C9O)C(O)C8O)C(O)C7O)C(O)C6O)C(O)C5O)C(O)C4O)C(O)C3O)C(O)C2O)C(O)C(O)C1NC1C=C(CO)C(O)C(O)C1O (stereo not drawn) [compound B] |  |  | 
slightly soluble | highly soluble | 1.99 | 2.21 | 1.95 | 2.07 | 2.02 | 1.73 | CC1OC(OC2C(CO)OC(OC3C(CO)=CC(NC4C(C)OC(OC5C(CO)OC(OC6C(CO)=CC(NC7C(C)OC(OC8C(CO)OC(OC9C(CO)=CC(NC%10C(C)OC(OC%11C(CO)OC(OC%12C(CO)=CC(NC%13C(C)OC(OC%14C(CO)OC(OC%15C(CO)=CC(NC%16C(C)OC(OC%17C(CO)OC(OC%18C(CO)OC(OC%19C(CO)OC(OC%20OC(CO)C(O)C(O)C%20O)C(O)C%19O)C(O)C%18O)C(O)C%17O)C(O)C%16O)C(O)C%15O)C(O)C%14O)C(O)C%13O)C(O)C%12O)C(O)C%11O)C(O)C%10O)C(O)C9O)C(O)C8O)C(O)C7O)C(O)C6O)C(O)C5O)C(O)C4O)C(O)C3O)C(O)C2O)C(O)C(O)C1NC1C=C(CO)C(O)C(O)C1O (stereo not drawn) [compound C] |  |  | 
